The source of these data is article PMC12292521, “Discovery of a Potent Antimicrobial Peptide Through Rational Design: A New Frontier in Pathogen Control” (Biomolecules, 2025).

In general, MBC refers to the smallest concentration meeting the test's criterion for killing.

In brackets after ≈: the same amount, converted by molar mass. Peptide text beside a SMILES is read from it.

The subject of experiment [1] is Monophasic Salmonella Typhimurium. The experiment is classed as cell-based, monophasic variant of Salmonella Typhimurium. The note with it: Monophasic murium, 6 h. The method, then:
To assess the antimicrobial potential of the designed peptide, different strains of Gram-negative and Gram-positive bacteria were evaluated. Pseudomonas aeruginosa was an ATCC (27853) strain, while Escherichia coli, Listeria monocytogenes, Staphylococcus aureus, Campylobacter jejuni, Salmonella Typhimurium, the monophasic variant of Salmonella Typhimurium and Salmonella Napoli were isolated from food products by the Laboratory of Microbiological Food Control—Department of Food Microbiology of the Istituto Zooprofilattico Sperimentale del Mezzogiorno (IZSM) in Portici (Naples, Italy).
In accordance with the Clinical & Laboratory Standards Institute guidelines (CLSI, 2015), the Minimum Bactericidal Concentration (MBC), defined as the minimum concentration of peptide required to kill 99.9% of the tested bacterial suspension within a defined time interval, was determined. L. monocytogenes, E. coli, S. aureus, S. Typhimurium, monophasic variant of S. Typhimurium, S. Napoli, and P. aeruginosa were cultured at 37 °C in buffered peptone water (Thermo Fisher, Milan, Italy), while C. jejuni was cultured in Bolton Broth (Oxoid, Madrid, Spain). The bacterial suspension was collected and then diluted in fresh broth to a final concentration of 1.0 × 10^3 or 1.0 × 10^5 colony-forming units (CFUs)/mL. […] Samples containing only cell suspension and DMSO were used as controls. […]

For experiment [2], the system named is Aspergillus brasiliensis ATCC 16404. Briefly: Quantitative suspension test, fungicidal activity, BS EN 1650:2019. The note with it: spores, 60 min, 37 °C, BSA 0.3 g/L. Further details: key to Fungicidal activity verdict: Active: For fungi: ACTIVE if log R ≥ 4 according to BS EN 1650:2019; Not Active: For fungi: ACTIVE if log R ≥ 4 according to BS EN 1650:2019. In kind it is cell-based. The text has this: (§1) The method is based on the suspension test according to BS EN 1276:2019, which specifies a quantitative suspension analysis for the evaluation of the bactericidal activity of chemical disinfectants and antiseptics used in food, industrial, domestic, and institutional areas against a panel of microorganisms under conditions that more closely simulate practical use. Briefly, S. aureus ATCC 6538, P. aeruginosa ATCC 15442, and Staphylococcus epidermidis ATCC 12228 were used as test organisms at a bacterial concentration of 1.0 × 10^8 colony-forming units (CFU) per mL (CFU/mL). In the test, BSA (Bovine Serum Albumin) (0.3 g/L) was used as an interfering substance to mimic clean conditions. […] The reaction mixture was incubated at 37 °C for 60 min before transferring each sample to a tube containing a neutralizer solution consisting of 30 g/L polysorbate 80, 1 g/L sodium thiosulfate, 3 g/L lecithin, 1 g/L tryptone, 8.5 g/L NaCl, 100 mL/L phosphate buffer and water. The negative control (untreated cells) was prepared using PBS instead of biocides. The solutions were then plated onto Tryptone Soy Agar (TSA) and incubated at 37 °C for 48 h to determine the logarithmic CFU/mL reduction, according to the following Equation:(2) log R = log (N0) − log (Na) where R refers to the reduction in viability, N refers to the number of CFU/mL in the test mixture at the beginning of the contact time, and Na refers to the number of CFU/mL in the test mixture at the end of the contact time. […] The test method and the minimum requirements for fungicidal activity of chemical disinfectant and antiseptic products were performed according to BS EN 1650:2019. The fungicidal activity was studied using the vegetative cells of Candida albicans ATCC 10231 and the spores of Aspergillus brasiliensis ATCC 16404 as test organisms. […] The mixture was maintained at 37 °C for a contact time of 60 min. At the end of this contact time, an aliquot was taken, and the fungicidal activity was immediately neutralized with a solution consisting of 30 g/L polysorbate 80, 1 g/L sodium thiosulfate, 3 g/L lecithin, 1 g/L tryptone, 8.5 g/L NaCl, 100 mL/L phosphate buffer and water. The samples were then plated onto malt extract agar (MEA) and incubated at 30 °C for 48 h to determine the numbers of surviving fungi as the logarithmic CFU/mL reduction, calculated according to Equation (2).

Experiment [3] has as its system Candida albicans ATCC 10231. The description is as above. Further details: key to Fungicidal activity verdict: Active: For fungi: ACTIVE if log R ≥ 4 according to BS EN 1650:2019; Not Active: For fungi: ACTIVE if log R ≥ 4 according to BS EN 1650:2019. The note with it: vegetative cells, 60 min, 37 °C, BSA 0.3 g/L. In kind it is cell-based.
From the text: as §1

For the molecule `CC[C@H](C)[C@H](NC(=O)[C@H](Cc1c[nH]c2ccccc12)NC(=O)[C@H](CCCCN)NC(=O)[C@@H](N)CCCNC(=N)N)C(=O)N[C@@H](CC(C)C)C(=O)N[C@@H](CCCCN)C(=O)N[C@@H](Cc1c[nH]c2ccccc12)C(=O)N[C@@H](CC(C)C)C(=O)N[C@@H](CCCNC(=N)N)C(=O)N[C@H](C(=O)N[C@@H](Cc1c[nH]c2ccccc12)C(=O)N[C@@H](CCCCN)C(=O)N[C@@H](CCCCN)C(N)=O)[C@@H](C)O` [RKW] (H-RKWILKWLRTWKK-NH2; N-terminus assumed), the MBC in experiment [1] came to 20 µM (≈ 36.8 µg/mL). Further, the Fungicidal activity verdict result in experiment [2] (RKW 5 µM) was “Na = 3.40 × 10^6 log Na = 6.53 log R = −0.28 Not Active”; in experiment [2] (RKW 10 µM), “Na = 3.30 × 10^6 log Na = 6.52 log R = −0.29 Not Active”; in experiment [2] (RKW 20 µM), “Na = 2.20 × 10^6 log Na = 6.34 log R = −0.09 Not Active”; in experiment [2] (RKW 50 µM) it was “Na = 2.20 × 10^6 log Na = 6.34 log R = −0.09 Not Active”; in experiment [2] (RKW 100 µM) it was “Na = 2.20 × 10^6 log Na = 6.34 log R = −0.09 Not Active”; in experiment [3] (RKW 5 µM) it was “Na = 7.70 × 10^4 log Na = 4.89 log R = 1.71 Not Active”. Further, the Fungicidal activity verdict result is “Na = 1.08 × 10^3 log Na = 3.03 log R = 3.57 Not Active” in experiment [3] (RKW 10 µM), “Na = 2.75 × 10^2 log Na = 2.44 log R = 4.16 Active” in experiment [3] (RKW 20 µM), “Na = 2.75 × 10^2 log Na = 2.44 log R = 4.16 Active” in experiment [3] (RKW 50 µM) and “Na = 2.75 × 10^2 log Na = 2.44 log R = 4.16 Active” in experiment [3] (RKW 100 µM). Moreover, the “Na (CFU/mL at the end of the contact time)” value in experiment [2] (RKW 5 µM) was 3.40 × 10^6 CFU/mL; in experiment [2] (RKW 10 µM) it was 3.30 × 10^6 CFU/mL; in experiment [2] (RKW 20 µM), 2.20 × 10^6 CFU/mL; in experiment [2] (RKW 50 µM) it was 2.20 × 10^6 CFU/mL; in experiment [2] (RKW 100 µM), 2.20 × 10^6 CFU/mL; in experiment [3] (RKW 5 µM), 7.70 × 10^4 CFU/mL. Besides, the “Na (CFU/mL at the end of the contact time)” value in experiment [3] (RKW 10 µM) is 1.08 × 10^3 CFU/mL; in experiment [3] (RKW 20 µM) it was 2.75 × 10^2 CFU/mL; in experiment [3] (RKW 50 µM) it was 2.75 × 10^2 CFU/mL; in experiment [3] (RKW 100 µM), 2.75 × 10^2 CFU/mL.
